Measured values from patent US4267180A, “Novel antibacterial amide compounds and process means for producing the same” (Warner-Lambert Company, priority 1980, dated 1981).

How the values were obtained:
Assay in all cases: Minimal Inhibitory Concentration, in vitro
Format in all cases: cell-based
Design in all cases: unit not given here
[1] = system: Enterobacter Cloacae IMM-11
Source text: (§1) The compounds of the invention are new chemical compounds that are useful as pharmacological agents and especially as broad spectrum antibacterial agents. They are active in vitro against strains of both gram-positive and gram-negative bacteria.
(§2) Minimal Inhibitory Concentration

[2] = system: Klebsiella Pneumoniae MGH-2
Source text: as §1, §2

Proteus Vulgaris 1810 = system: Proteus Vulgaris 1810
Source text: as §1, §2

[3] = system: Pseudomonas Aeruginosa #28
Source text: as §1, §2

[4] = system: Pseudomonas Aeruginosa UI-18
Source text: as §1, §2

[5] = system: Serratia Marcescens IMM-16
Source text: as §1, §2

Staph Aureus UC-76 = system: Staph Aureus UC-76
Source text: as §1, §2

Compound	Minimal Inhibitory Concentration [1]	Minimal Inhibitory Concentration [2]	Minimal Inhibitory Concentration (Proteus Vulgaris 1810)	Minimal Inhibitory Concentration [3]	Minimal Inhibitory Concentration [4]	Minimal Inhibitory Concentration [5]	Minimal Inhibitory Concentration (Staph Aureus UC-76)
CCC(=O)N[C@@H](C)C(=O)Nc1ccc(-c2ncc(C(=O)N[C@@H](C(=O)N[C@@H]3C(=O)N4[C@@H]3SC(C)(C)[C@@H]4C(=O)O)c3ccc(O)cc3)c(O)n2)cc1 [N-Propionyl-L-Alanyl, N-[2-[4-(N-Propionyl-L-alanylamino)phenyl]-4-hydroxy-5-pyrimidinylcarbonyl]amoxicillin]	3.1	50	3.1	1.6	0.8	12.5	0.8
N-[2-[4-(N-Acetyl-DL-glutaminylamino)phenyl]-4-hydroxy-5-pyrimidinylcarbonyl]amoxicillin [N-Acetyl-L-Glutaminyl]	12.5	> 50	0.8	3.1	3.1	25	3.1
